Experimental data reported in ChEMBL document CHEMBL1146478, “Saponins from the bark of Nephelium maingayi” (J Nat Prod, 2004).
Converted amounts (≈) assume the structure as drawn.

Tests used:
[1] = Cytotoxicity against human HUVEC; format: cell-based; settings: HUVEC cells, read-out: ED50 (the source's name)
LNCaP = assay: Cytotoxicity against human LNCAP cells; format: functional; settings: read-out: ED50 (the source's name)
Lu1 = assay: Cytotoxicity against human Lu1 cells; format: functional; settings: read-out: ED50 (the source's name)
MCF7 = assay: Cytotoxicity against human MCF7 cells; format: functional; settings: read-out: ED50 (the source's name)

| Compound | CC50 [1] [µg/mL] | EC50 (LNCaP) [µg/mL] | EC50 (Lu1) [µg/mL] | EC50 (MCF7) [µg/mL] |
| --- | --- | --- | --- | --- |
| CC1(C)CC[C@]2(C)[C@@H](O)C[C@]3(C)C(=CC[C@@H]4[C@@]5(C)CC[C@H](O[C@@H]6OC[C@@H](O)[C@H](O[C@@H]7OC[C@H](O)[C@H](O)[C@H]7O)[C@H]6O[C@@H]6O[C@H](CO)[C@@H](O)[C@H](O)[C@H]6O)C(C)(C)[C@@H]5CC[C@]43C)[C@@H]2C1 [NEPHELIOSIDE V] | 17.7 (≈ 20.4 µM) | 11.7 (≈ 13.5 µM) | 13.6 (≈ 15.6 µM) | 13.9 (≈ 16 µM) |
| CO[C@@H]1C[C@H]2C(C)(C)[C@@H](O[C@@H]3O[C@H](CO)[C@@H](O)[C@H](O[C@@H]4OC[C@H](O)[C@H](O)[C@H]4O)[C@H]3O[C@@H]3O[C@H](CO)[C@@H](O)[C@H](O)[C@H]3O)CC[C@]2(C)[C@H]2CC=C3[C@@H]4CC(C)(C)CC[C@]4(CO)CC[C@@]3(C)[C@@]21C [NEPHELIOSIDE IV] | > 20 | > 20 | > 20 | > 20 |
| CC1(C)CC[C@]2(C)[C@@H](O)C[C@]3(C)C(=CC[C@@H]4[C@@]5(C)CC[C@H](O[C@@H]6O[C@H](CO)[C@@H](O)[C@H](O[C@@H]7OC[C@H](O)[C@H](O)[C@H]7O)[C@H]6O[C@@H]6O[C@H](CO)[C@@H](O)[C@H](O)[C@H]6O)C(C)(C)[C@@H]5CC[C@]43C)[C@@H]2C1 [NEPHELIOSIDE VI] | > 20 | > 20 | > 20 | > 20 |
| CC(=O)OC[C@H]1O[C@@H](O[C@@H]2[C@@H](O)[C@H](O[C@H]3CC[C@]4(C)[C@H]5CC=C6[C@@H]7CC(C)(C)CC[C@]7(CO)CC[C@@]6(C)[C@]5(C)CC[C@H]4C3(C)C)OC[C@H]2O)[C@H](O)[C@@H](O)[C@@H]1O | > 20 | > 20 | > 20 | > 20 |
| CC1(C)CC[C@]2(CO)CC[C@]3(C)C(=CC[C@@H]4[C@@]5(C)CC[C@H](O[C@@H]6OC[C@@H](O)[C@H](O[C@@H]7OC[C@H](O)[C@H](O)[C@H]7O)[C@H]6O[C@@H]6O[C@H](CO)[C@@H](O)[C@H](O)[C@H]6O)C(C)(C)[C@@H]5CC[C@]43C)[C@@H]2C1 [NEPHELIOSIDE I] | > 20 | > 20 | 19.5 (≈ 22.4 µM) | > 20 |
| CC1(C)CC[C@]2(CO)CC[C@]3(C)C(=CC[C@@H]4[C@@]5(C)CC[C@H](O[C@@H]6O[C@H](CO)[C@@H](O)[C@H](O[C@@H]7OC[C@H](O)[C@H](O)[C@H]7O)[C@H]6O[C@@H]6O[C@H](CO)[C@@H](O)[C@H](O)[C@H]6O)C(C)(C)[C@@H]5CC[C@]43C)[C@@H]2C1 [NEPHELIOSIDE II] | > 20 | > 20 | > 20 | > 20 |
